Values after ≈ are worked out from the molar mass of the structure shown. Active and inactive are the calls of the source. No cut-off for these calls is given here.
Assays:
[1] = test system: Corynebacterium; test: Antibacterial activity against Corynebacterium ATCC 49368 assessed as zone of inhibition at 15 mg/ml; format: functional; settings: for zone of inhibition at 15000 µg/mL: read-out: IZ
[2] = test system: Escherichia coli; test: Antibacterial activity against Escherichia coli ATCC 25922 assessed as zone of inhibition at 10 mg/ml; format: functional; settings: read-out: IZ
[3] = test system: Bacillus subtilis; test: Antibacterial activity against Bacillus subtilis ATCC 23857 assessed as zone of inhibition at 10 mg/ml; format: functional; settings: for zone of inhibition at 10000 µg/mL: read-out: IZ
[4] = test system: Klebsiella pneumoniae; test: Antibacterial activity against Klebsiella pneumoniae ATCC 13883 assessed as zone of inhibition at 15 mg/kg; format: functional; settings: read-out: IZ
[5] = test system: Streptococcus pyogenes; test: Antibacterial activity against Streptococcus pyogenes ATCC 19615 assessed as zone of inhibition at 10 mg/ml; format: functional; settings: for zone of inhibition at 10000 µg/mL: read-out: IZ
[6] = test system: Salmonella typhi; test: Antibacterial activity against Salmonella typhi ATCC 6539 assessed as zone of inhibition at 15 mg/kg; format: functional, Salmonella enterica subsp. enterica serovar Typhi; settings: for zone of inhibition at 15 mg/kg: Salmonella enterica, read-out: IZ
[7] = test system: Bacillus subtilis; test: Antibacterial activity against Bacillus subtilis ATCC 23857 assessed as zone of inhibition at 5 mg/ml; format: functional; settings: for zone of inhibition at 5000 µg/mL: read-out: IZ
[8] = test system: Staphylococcus aureus; test: Antibacterial activity against Staphylococcus aureus […] assessed as zone of inhibition at 10 mg/ml; format: functional; settings: for zone of inhibition at 10000 µg/mL: read-out: IZ
[9] = test system: Streptococcus pyogenes; test: Antibacterial activity against Streptococcus pyogenes ATCC 19615 assessed as zone of inhibition at 5 mg/ml; format: functional; settings: for zone of inhibition at 5000 µg/mL: read-out: IZ
[10] = test system: Corynebacterium; test: Antibacterial activity against Corynebacterium ATCC 49368 assessed as bacterial growth inhibition; format: functional
[11] = test system: Corynebacterium; test: Antibacterial activity against Corynebacterium ATCC 49368 assessed as zone of inhibition at 10 mg/ml; format: functional; settings: for zone of inhibition at 10000 µg/mL: read-out: IZ
[12] = test system: Escherichia coli; test: Antibacterial activity against Escherichia coli ATCC 25922 assessed as zone of inhibition at 15 mg/ml; format: functional; settings: read-out: IZ
[13] = test system: Bacillus subtilis; test: Antibacterial activity against Bacillus subtilis ATCC 23857 assessed as bacterial growth inhibition; format: functional
[14] = test system: Klebsiella pneumoniae; test: Antibacterial activity against Klebsiella pneumoniae ATCC 13883 assessed as zone of inhibition at 10 mg/kg; format: functional; settings: read-out: IZ
[15] = test system: Corynebacterium; test: Antibacterial activity against Corynebacterium ATCC 49368 assessed as zone of inhibition at 5 mg/ml; format: functional; settings: read-out: IZ
[16] = test system: Salmonella typhi; test: Antibacterial activity against Salmonella typhi ATCC 6539 assessed as zone of inhibition at 10 mg/kg; format: functional, Salmonella enterica subsp. enterica serovar Typhi; settings: for zone of inhibition at 10 mg/kg: Salmonella enterica, read-out: IZ
[17] = test system: Staphylococcus aureus; test: Antibacterial activity against Staphylococcus aureus […] assessed as zone of inhibition at 15 mg/ml; format: functional; settings: for zone of inhibition at 15000 µg/mL: read-out: IZ
[18] = test system: Bacillus subtilis; test: Antibacterial activity against Bacillus subtilis ATCC 23857 assessed as zone of inhibition at 15 mg/ml; format: functional; settings: for zone of inhibition at 15000 µg/mL: read-out: IZ
[19] = test system: Pseudomonas aeruginosa; test: Antibacterial activity against Pseudomonas aeruginosa ATCC 27853 assessed as zone of inhibition at 5 mg/ml; format: functional; settings: read-out: IZ
[20] = test system: Pseudomonas aeruginosa; test: Antibacterial activity against Pseudomonas aeruginosa ATCC 27853 assessed as zone of inhibition at 15 mg/ml; format: functional; settings: read-out: IZ
[21] = test system: Staphylococcus aureus; test: Antibacterial activity against Staphylococcus aureus […] assessed as zone of inhibition at 5 mg/ml; format: functional; settings: for zone of inhibition at 5000 µg/mL: read-out: IZ
[22] = test system: Pseudomonas aeruginosa; test: Antibacterial activity against Pseudomonas aeruginosa ATCC 27853 assessed as zone of inhibition at 10 mg/ml; format: functional; settings: read-out: IZ
[23] = test system: Streptococcus pyogenes; test: Antibacterial activity against Streptococcus pyogenes ATCC 19615 assessed as zone of inhibition at 15 mg/ml; format: functional; settings: for zone of inhibition at 15000 µg/mL: read-out: IZ
[24] = test system: Klebsiella pneumoniae; test: Antibacterial activity against Klebsiella pneumoniae ATCC 13883 assessed as bacterial growth inhibition; format: functional
[25] = test system: Staphylococcus aureus; test: Antibacterial activity against Staphylococcus aureus […] assessed as bacterial growth inhibition; format: functional
[26] = test system: Salmonella typhi; test: Antibacterial activity against Salmonella typhi ATCC 6539 assessed as bacterial growth inhibition; format: functional
[27] = test system: Escherichia coli; test: Antibacterial activity against Escherichia coli ATCC 25922 assessed as bacterial growth inhibition; format: functional
[28] = test system: Streptococcus pyogenes; test: Antibacterial activity against Streptococcus pyogenes ATCC 19615 assessed as bacterial growth inhibition; format: functional
[29] = test system: Pseudomonas aeruginosa; test: Antibacterial activity against Pseudomonas aeruginosa ATCC 27853 assessed as bacterial growth inhibition; format: functional
[30] = test system: Escherichia coli; test: Antibacterial activity against Escherichia coli ATCC 25922 assessed as zone of inhibition at 5 mg/ml; format: functional; settings: read-out: IZ
[31] = test system: Klebsiella pneumoniae; test: Antibacterial activity against Klebsiella pneumoniae ATCC 13883 assessed as zone of inhibition at 5 mg/kg; format: functional; settings: read-out: IZ
[32] = test system: LLC-PK1; test: Cytotoxicity against pig LLC-PK1 cells at up to 100 uM by MTT assay; format: cell-based, Sus scrofa
[33] = test system: HepG2; test: Cytotoxicity against human HepG2 cells at up to 100 uM by MTT assay; format: cell-based
[34] = test system: Salmonella typhi; test: Antibacterial activity against Salmonella typhi ATCC 6539 assessed as zone of inhibition at 5 mg/kg; format: functional, Salmonella enterica subsp. enterica serovar Typhi; settings: Salmonella enterica, read-out: IZ
[35] = Salmonella enterica subsp. enterica serovar Typhi

| Compound | zone of inhibition at 15000 µg/mL [1] [mm] | zone of inhibition at 10000 µg/mL [3] [mm] | zone of inhibition at 15 mg/kg [4] [mm] | zone of inhibition at 10000 µg/mL [5] [mm] | zone of inhibition at 5000 µg/mL [7] [mm] | zone of inhibition at 10000 µg/mL [8] [mm] | zone of inhibition at 5000 µg/mL [9] [mm] | MIC [10] [µg/mL] | zone of inhibition at 10000 µg/mL [11] [mm] | MIC [13] [µg/mL] | zone of inhibition at 15000 µg/mL [17] [mm] | zone of inhibition at 15000 µg/mL [18] [mm] | zone of inhibition at 15000 µg/mL [20] [mm] | zone of inhibition at 5000 µg/mL [21] [mm] | zone of inhibition at 10000 µg/mL [22] [mm] | zone of inhibition at 15000 µg/mL [23] [mm] | MIC [24] | MIC [25] [µg/mL] | MIC [27] | MIC [28] [µg/mL] | other results |
| --- | --- | --- | --- | --- | --- | --- | --- | --- | --- | --- | --- | --- | --- | --- | --- | --- | --- | --- | --- | --- | --- |
| O=C(O)c1cn(C2CC2)c2cc(N3CCNCC3)c(F)cc2c1=O [CIPROFLOXACIN] | 19 | 15 | 25 | 13 | 12 | 10 | 10 | 4 (≈ 12.1 µM) | 16 | 2 (≈ 6.04 µM) | 22 | 27 | 25 | 7 | 18 | 26 | – | – | – | – | zone of inhibition at 10000 µg/mL [2]: 11 mm; zone of inhibition at 15 mg/kg [6]: 32 mm; zone of inhibition at 15000 µg/mL [12]: 10 mm; zone of inhibition at 10 mg/kg [14]: 12 mm; zone of inhibition at 5000 µg/mL [15]: 10 mm; zone of inhibition at 10 mg/kg [16]: 15 mm; zone of inhibition at 5000 µg/mL [19]: 15 mm |
| N.O=NN(O)c1ccc(CCl)cc1 | 17 | 14 | 10 | 12 | 10 | 12 | 10 | 16 | 14 | 16 | 20 | 18 | 15 | 8 | 10 | 18 | inactive | 16 | inactive | 8 | zone of inhibition at 10 mg/kg [14]: 7 mm; zone of inhibition at 5000 µg/mL [15]: 13 mm; MIC [26, 35]: inactive |
| N.O=NN(O)c1ccc(Cl)cc1 | 23 | 19 | 15 | 15 | 14 | 9 | 12 | 8 | 16.1 | 2 | 25 | 35 | 13 | 9 | 10 | 27 | 20 µg/mL | 4 | 20 µg/mL | 4 | zone of inhibition at 10000 µg/mL [2]: 14 mm; zone of inhibition at 15 mg/kg [6]: 19 mm; MIC [29]: 20 µg/mL; zone of inhibition at 5000 µg/mL [30]: 10 mm; zone of inhibition at 5 mg/kg [31]: 8 mm; zone of inhibition at 15000 µg/mL [12]: 20 mm; Activity [32]: Non-Toxic; zone of inhibition at 10 mg/kg [14]: 11 mm; zone of inhibition at 5000 µg/mL [15]: 13 mm; MIC ([26]; Salmonella enterica): 20 µg/mL; Activity [33]: Non-Toxic; zone of inhibition at 10 mg/kg [16]: 13 mm; zone of inhibition at 5 mg/kg [34]: 9 mm; zone of inhibition at 5000 µg/mL [19]: 5 mm |
| N.O=NN(O)c1ccccc1 | 10 | 15 | – | 10 | 10 | 9 | 8 | 20 | – | 16 | 12 | 17 | – | – | – | 20 | inactive | 20 | inactive | 20 | MIC ([26]; Salmonella enterica): 20 µg/mL; MIC [21]: inactive |
| CN[C@@H]1[C@H](O[C@H]2[C@H](O[C@H]3[C@H](O)[C@@H](O)[C@H](N=C(N)N)[C@@H](O)[C@@H]3N=C(N)N)O[C@@H](C)[C@]2(O)C=O)O[C@@H](CO)[C@H](O)[C@H]1O [STREPTOMYCIN] | 20 | 10 | 14 | 3 | – | 4 | 2 | – | 8 | – | 8 | 20 | 15 | 2 | 11 | 10 | 16 µg/mL (≈ 27.5 µM) | – | 16 µg/mL (≈ 27.5 µM) | 8 (≈ 13.8 µM) | – |
| GENTAMICIN | – | – | – | – | – | – | – | – | – | – | – | – | – | – | – | – | – | 8 | – | – | inhibition zone (IZ) [1]: 23 mm; inhibition zone (IZ) [3]: 10 mm; inhibition zone (IZ) [5]: 13 mm; inhibition zone (IZ) [6, 35]: 26 mm; inhibition zone (IZ) [7]: 5 mm; inhibition zone (IZ) [8]: 11 mm; inhibition zone (IZ) [9]: 3 mm; inhibition zone (IZ) [11]: 10 mm; MIC [26, 35]: 16 µg/mL; inhibition zone (IZ) [16, 35]: 12 mm; inhibition zone (IZ) [17]: 22 mm; inhibition zone (IZ) [18]: 24 mm; inhibition zone (IZ) [21]: 10 mm; inhibition zone (IZ) [23]: 25 mm |

Source: ChEMBL document CHEMBL5030544, “Synthesis, anti-microbial, toxicity and molecular docking studies of N-nitroso-N-phenylhydroxylamine (cupferron) and its derivatives” (Bioorg Med Chem Lett, 2021)
